From patent US9546162B2, “Compounds and methods for skin repair” (Allergan, Inc., priority 2013, dated 2017) come the findings set out here.

Like-named read-outs stand apart in the source and are kept apart here. Bounds are passed on as bounds.

For assay [1], the target named is T1, EP2 (Homo sapiens (Human), UniProt P43116). As to the kind of experiment: EP2 competition binding (Ki), [3H]PGE2. The settings on record: EP2, HEK 293 cells. On the procedure:
Competition binding experiments were performed in a medium containing Hank's balanced salt solution, Hepes 20 mM, pH 7.3, membranes (˜60 μg protein) or 2×10^5 cells from HEK 293 cells stably expressing human EP2 receptors, [^3H]PGE2 (10 nM) and various concentrations of test compounds in a total volume of 300 μl. Reaction mixtures were incubated at 23° C. for 60 min, and were filtered over Whatman GF/B filters under vacuum. Filters were washed three times with 5 ml ice-cold buffer containing 50 mM Tris/HCl (pH 7.3). Non-specific binding was estimated in the presence of excess unlabeled PGE2 (10 μM). Binding data fitted to the binding model for a single class of binding sites, using nonlinear regression analysis.
(§1) HEK-293 cells stably expressing the human or feline FP receptor, or EP1, EP2, or EP4 receptors were washed with TME buffer, scraped from the bottom of the flasks, and homogenized for 30 sec using a Brinkman PT 10/35 polytron. TME buffer was added to achieve a final 40 ml volume in the centrifuge tubes (the composition of TME is 100 mM TRIS base, 20 mM MgCl2, […]; 10N HCl is added to achieve a pH of 7.4).
(§2) The cell homogenate was centrifuged at 19000 r.p.m. for 20 min at 4° C. using a Beckman Ti-60 rotor. The resultant pellet was resuspended in TME buffer to give a final 1 mg/ml protein concentration, as determined by Biorad assay. Radioligand binding competition assays vs. [^3H-]17-phenyl PGF2a (5 nM) were performed in a 100 μl volume for 60 min. Binding reactions were started by adding plasma membrane fraction. The reaction was terminated by the addition of 4 ml ice-cold TRIS-HCl buffer and rapid filtration through glass fiber GF/B filters using a Brandel cell harvester. The filters were washed 3 times with ice-cold buffer and oven dried for one hour.
(§3) [^3H—] PGE2 (specific activity 180 Ci mmol) was used as the radioligand for EP receptors. [^3H] 17-phenyl PGF2a was employed for FP receptor binding studies. Binding studies employing EP1, EP2, EP4 and FP receptors were performed in duplicate in at least three separate experiments. A 200 μl assay volume was used. Incubations were for 60 min at 25° C. and were terminated by the addition of 4 ml of ice-cold 50 mM TRIS-HCl, followed by rapid filtration through Whatman GF/B filters and three additional 4 ml washes in a cell harvester (Brandel). Competition studies were performed using a final concentration of 5 nM [^3H]-PGE2, or 5 nM [^3H] 17-phenyl PGF2a and non-specific binding determined with 10^−5M of unlabeled PGE2, or 17-phenyl PGF2a, according to receptor subtype studied.

The target in assay [2] is T2, EP4 (Homo sapiens (Human), UniProt P35408). As to the kind of experiment: EP4 cAMP EC50. The class given is cell-based.
For assay [3], the target named is T2, EP4. As to the kind of experiment: EP4 radioligand binding (Ki), [3H]PGE2. Particulars: EP4, HEK-293 membranes. How it is done: as §1, §2, §3
Assay [4] concerns the target T1, EP2. As to the kind of experiment: EP2 cAMP EC50. The class given is cell-based.

T2 sequence (P35408 whole entry): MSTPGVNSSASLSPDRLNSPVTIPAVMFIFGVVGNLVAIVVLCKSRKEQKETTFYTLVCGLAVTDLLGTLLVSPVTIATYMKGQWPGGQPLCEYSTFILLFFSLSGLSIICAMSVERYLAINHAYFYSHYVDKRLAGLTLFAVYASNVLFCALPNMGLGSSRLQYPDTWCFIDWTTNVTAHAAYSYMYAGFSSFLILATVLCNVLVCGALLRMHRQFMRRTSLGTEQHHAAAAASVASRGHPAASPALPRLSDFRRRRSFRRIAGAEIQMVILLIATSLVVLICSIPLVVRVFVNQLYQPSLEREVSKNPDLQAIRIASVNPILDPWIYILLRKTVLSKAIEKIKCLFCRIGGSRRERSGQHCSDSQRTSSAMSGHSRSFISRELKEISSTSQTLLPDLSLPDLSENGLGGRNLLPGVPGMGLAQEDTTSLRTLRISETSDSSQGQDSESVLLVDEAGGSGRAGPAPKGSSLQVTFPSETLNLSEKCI
T1 sequence (P43116 whole entry): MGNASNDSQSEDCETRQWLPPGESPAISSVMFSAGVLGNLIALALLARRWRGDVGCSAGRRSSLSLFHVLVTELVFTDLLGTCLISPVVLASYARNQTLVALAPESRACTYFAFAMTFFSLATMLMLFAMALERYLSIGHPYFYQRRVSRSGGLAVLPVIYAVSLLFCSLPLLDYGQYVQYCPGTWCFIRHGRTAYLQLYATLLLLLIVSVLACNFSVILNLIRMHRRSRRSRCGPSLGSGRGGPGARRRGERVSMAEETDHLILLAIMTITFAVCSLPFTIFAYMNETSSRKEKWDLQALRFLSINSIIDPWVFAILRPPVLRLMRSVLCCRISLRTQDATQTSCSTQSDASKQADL

The term Ki denotes the dissociation constant of the complex between target and ligand, obtained from inhibition or displacement. A high value points to lower affinity. A word on the EC50: it is the midpoint of the concentration-response curve. The low end stands for greater potency, the high end for weaker potency. Take `COc1cc(CC2CCc3cccc(CCc4ccc(C(=O)O)cc4)c32)cc(OC)c1` (stereo not shown) [Entry 1]: the inhibition constant Ki in assay [1] was 2 nM. In assay [2], this molecule gave an EC50 of 7.2 nM. Moreover, the EP4 Ki in assay [3] (read-out: EP4 Ki EC50) worked out at 3 nM.

For `COc1cc(/C=C2\CCc3cccc(CCc4ccc(C(=O)O)cc4)c32)cc(OC)c1` [Entry 2], the EC50 is 28 nM in assay [4] and 7 nM in assay [2]. Besides, in assay [1], the affinity corresponds to a Ki of 95 nM. In addition, the EP4 Ki in assay [3] (read-out: EP4 Ki EC50) was 42 nM.

Take `COc1cc(CC2=CCCc3cccc(CCc4ccc(C(=O)O)cc4)c32)cc(OC)c1` [Entry 3]: the concentration for a half-maximal effect (EC50) in assay [4] worked out at 130 nM; in assay [2], 43 nM. Moreover, the affinity in assay [1] corresponds to a Ki of 116 nM. Also, the EP4 Ki in assay [3] (read-out: EP4 Ki EC50) was found to be 90 nM.

With `COc1ccc(OC)c(CC2=CCc3cccc(CCc4ccc(C(=O)O)cc4)c32)c1` [Entry 4], in assay [1], the affinity, expressed as Ki, was 61 nM. Further, in assay [2], the EC50 was 71 nM. The EP4 Ki in assay [3] (read-out: EP4 Ki EC50) turned out to be 52 nM.

In assay [1], `COc1cccc(CC2=CCc3cccc(CCc4ccc(C(=O)O)cc4)c32)c1OC` [Entry 6] had a Ki of 53 nM. The EC50 in assay [2] is 562 nM. For the same molecule, in assay [3] (read-out: EP4 Ki EC50), the EP4 Ki turned out to be 251 nM.

Consider `O=C(O)c1ccc(CCc2cccc3c2N(Cc2ccc4ccccc4c2)CC3)cc1` [Entry 6], for which the EP4 Ki in assay [3] (read-out: EP4 Ki EC50) was 174 nM.

Turning to `COc1ccc(CC2=CCc3cccc(CCc4ccc(C(=O)O)cc4)c32)cc1OC` [Entry 7], the EC50 in assay [4] came to 161 nM; in assay [2], 33 nM. In assay [1], the affinity corresponds to a Ki of 20 nM. The EP4 Ki in assay [3] (read-out: EP4 Ki EC50) worked out at 34 nM.

Regarding `O=C(O)c1ccc(CCc2cccc3c2N(Cc2cc(OCc4ccccc4)cc(OCc4ccccc4)c2)CC3)cc1` [Entry 7], the EP4 Ki in assay [3] (read-out: EP4 Ki EC50) turned out to be 5850 nM.

`COc1ccccc1CC1=CCc2cccc(CCc3ccc(C(=O)O)cc3)c21` [Entry 8]: the values for the EC50 in assay [4] and in assay [2] were 57 nM and 107 nM, respectively. Besides, in assay [1], the Ki was 67 nM. For the same molecule, in assay [3] (read-out: EP4 Ki EC50), the EP4 Ki came to 71 nM.

As to `O=C(O)c1ccc(CCc2cccc3c2N(Cc2ccc4c(c2)OCO4)CC3)cc1` [Entry 8], in assay [3] (read-out: EP4 Ki EC50), the EP4 Ki is 453 nM.

`COc1cc(CN2CCCc3cccc(CCc4ccc(C(=O)O)cc4)c32)cc(OC)c1` [Entry 9]: the EP4 Ki in assay [3] (read-out: EP4 Ki EC50) turned out to be 453 nM.

For `COc1ccc(CC2=CCc3cccc(CCc4ccc(C(=O)O)cc4)c32)cc1` [Entry 9], the EC50 worked out at 114 nM in assay [4] and 93 nM in assay [2]. In assay [1], this molecule came in with a Ki of 27 nM. Further, in assay [3] (read-out: EP4 Ki EC50), the EP4 Ki worked out at 195 nM.

`COc1cccc(CCN2Cc3cccc(CCc4ccc(C(=O)O)cc4)c3C2)c1` [Entry 10] showed an EP4 cAMP EC50 in assay [2] greater than 10000 nM. Further, the EP4 Ki in assay [3] was greater than 10000 nM.

In the case of `O=C(O)c1ccc(CCc2cccc3c2C(Cc2cc(Cl)cc(Cl)c2)=CC3)cc1` [Entry 10], the results for the EC50 in assay [4] and in assay [2] were 2 nM and 23 nM, respectively. Also, the Ki in assay [1] is 18 nM. In addition, the EP4 Ki in assay [3] (read-out: EP4 Ki EC50) is 56 nM.

The molecule `COc1cccc(CN2Cc3cccc(CCc4ccc(C(=O)O)cc4)c3C2)c1` [Entry 11] had an EP4 cAMP EC50 in assay [2] greater than 10000 nM.

As for `Cc1cc(C)cc(CC2=CCc3cccc(CCc4ccc(C(=O)O)cc4)c32)c1` [Entry 11], the EC50 in assay [4] was found to be 13 nM; in assay [2] it was 220 nM. In addition, in assay [1], affinity was put at a Ki of 6 nM. The EP4 Ki in assay [3] (read-out: EP4 Ki EC50) came out at 240 nM.

As to `COc1cc(CC2=CCc3c(F)ccc(CCc4ccc(C(=O)O)cc4)c32)cc(OC)c1` [Entry 12], the EC50 stood at 25 nM in assay [4] and 41 nM in assay [2]. This molecule had a Ki in assay [1] of 83 nM. In assay [3] (read-out: EP4 Ki EC50), the EP4 Ki was determined as 52 nM.

In turn, `COc1cc(CC2CCc3cccc(OCc4ccc(C(=O)O)cc4)c32)cc(OC)c1` (stereo not shown) [Entry 13] came in with a Ki in assay [1] of 469 nM. This molecule also showed an EC50 in assay [2] of 16 nM. In addition, the EP4 Ki in assay [3] (read-out: EP4 Ki EC50) was 154 nM.

For the molecule `COc1cc(CN2CCc3cccc(CCc4ccc(C(=O)O)s4)c32)cc(OC)c1` [Entry 13], the Ki in assay [1] came to 47 nM. Moreover, the EP4 Ki in assay [3] (read-out: EP4 Ki EC50) was 161 nM.

In assay [1], `COc1cc(/C=C2\CCc3cccc(OCc4ccc(C(=O)O)cc4)c32)cc(OC)c1` [Entry 14] displayed an EP2 Ki greater than 10000 nM. In addition, the EP4 cAMP EC50 in assay [2] was greater than 10000 nM. In addition, the EP4 Ki in assay [3] (read-out: EP4 Ki EC50) was found to be 1490 nM.

As to `COc1cc(CC2=CCc3cccc(CCc4ccc(C(=O)O)cc4)c32)cc(OC)c1` [Entry 15], the values for the EC50 in assay [4] and in assay [2] were 11 nM and 1 nM, respectively. The molecule also displayed a Ki in assay [1] of 3 nM. Also, in assay [3] (read-out: EP4 Ki EC50), the EP4 Ki amounted to 0.8 nM.

On to `COc1cccc(Cn2ccc3cccc(CCc4ccc(C(=O)O)cc4)c32)c1` [Entry 15], for which a half-maximal effect in assay [2] (EC50) was put at 3130 nM.

Regarding `COc1cc(CC2=CCc3ccc(OC)c(CCc4ccc(C(=O)O)cc4)c32)cc(OC)c1` [Entry 16], the Ki in assay [1] is 1700 nM. The EP4 Ki in assay [3] (read-out: EP4 Ki EC50) came to 469 nM.

`COc1cccc(CC(=O)N2CCc3cccc(CCc4ccc(C(=O)O)cc4)c32)c1` [Entry 17] had an EP2 Ki in assay [1] greater than 10000 nM. Also, in assay [2], the EP4 cAMP EC50 was greater than 10000 nM.

`O=C(O)c1ccc(CCc2cccc3c2C(Cc2cc(C(F)(F)F)cc(C(F)(F)F)c2)=CC3)cc1` [Entry 17] returned a Ki in assay [1] of 8 nM. In addition, the EC50 in assay [2] was 296 nM. Also, the EP4 Ki in assay [3] (read-out: EP4 Ki EC50) amounted to 736 nM.

In the case of `O=C(O)c1ccc(CCc2cccc3c2C(Cc2cc(F)cc(F)c2)=CC3)cc1` [Entry 18], the EC50 in assay [4] amounted to 6 nM; in assay [2], 57 nM. For the same molecule, the Ki in assay [1] was 27 nM. Further, the EP4 Ki in assay [3] (read-out: EP4 Ki EC50) was found to be 134 nM.

For `COc1cc(CC2=CCc3cc(F)cc(CCc4ccc(C(=O)O)cc4)c32)cc(OC)c1` [Entry 19], the EC50 was 36 nM in assay [4] and 2 nM in assay [2]. This molecule also showed a Ki in assay [1] of 18 nM. In assay [3] (read-out: EP4 Ki EC50), the EP4 Ki came out at 0.4 nM.

Regarding `COc1cc(OC)cc(S(=O)(=O)N2CCc3cccc(CCc4ccc(C(=O)O)cc4)c32)c1` [Entry 19], the Ki in assay [1] amounted to 776 nM. In assay [2], the EP4 cAMP EC50 is greater than 10000 nM. Moreover, the EP4 Ki in assay [3] (read-out: EP4 Ki EC50) turned out to be 8230 nM.

In assay [1], `COc1cc(CC2=CCc3cccc(-c4cccc(/C=C/C(=O)O)c4)c32)cc(OC)c1` [Entry 20] came in with an EP2 Ki greater than 10000 nM. Also, the EP4 Ki in assay [3] (read-out: EP4 Ki EC50) turned out to be 1230 nM.

For `COc1cccc(S(=O)(=O)N2CCc3cccc(CCc4ccc(C(=O)O)cc4)c32)c1` [Entry 20], in assay [2], the EP4 cAMP EC50 is greater than 10000 nM. Further, in assay [3], the EP4 Ki was greater than 10000 nM.

For `COc1cc(CC2=CCc3cccc(/C=C/c4ccc(C(=O)O)cc4)c32)cc(OC)c1` [Entry 21], the Ki in assay [1] turned out to be 4770 nM. In assay [2], the EP4 cAMP EC50 was greater than 10000 nM. Besides, in assay [3] (read-out: EP4 Ki EC50), the EP4 Ki was 1200 nM.

`COc1cc(CC2=CCc3cccc(-c4cccc(OCC(=O)O)c4)c32)cc(OC)c1` [Entry 22] gave an EP2 Ki in assay [1] greater than 10000 nM. Moreover, in assay [3] (read-out: EP4 Ki EC50), the EP4 Ki came out at 1170 nM.

In turn, `COc1cc(CC2=CCc3cccc(-c4ccc(OCC(=O)O)cc4)c32)cc(OC)c1` [Entry 23] registered an EP2 Ki in assay [1] greater than 10000 nM. In assay [2], the EP4 cAMP EC50 is greater than 10000 nM. Moreover, the EP4 Ki in assay [3] (read-out: EP4 Ki EC50) amounted to 4470 nM.

In assay [1], `COc1cc(CC2=CCc3cccc(C#Cc4ccc(C(=O)O)cc4)c32)cc(OC)c1` [Entry 24] came in with an EP2 Ki greater than 10000 nM. This molecule yielded an EP4 cAMP EC50 in assay [2] greater than 10000 nM. Besides, the EP4 Ki in assay [3] (read-out: EP4 Ki EC50) is 3600 nM.
